We go through four compounds from patent US20260365670A1, “EGFR INHIBITORS AND USES THEREOF” (DIZAL (JIANGSU) PHARMACEUTICAL CO., LTD., priority 2022, published 2026).

Read-outs that look alike come from different tables or passages of the source.

The target of assay [1] is T1, EGFR wild type (Homo sapiens, UniProt P00533).
T1 construct: purchased Carna Bio
As to the kind of experiment: Inhibition of EGFR wild type biochemical enzymatic activity (HTRF). To be noted: EGFR WT, 1 mM ATP, 1 h, room temperature, read-out: IC50 (nM) @WT. The procedure, abridged: (§1)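 HTRF kinase assay: each EGFR enzyme phosphorylated 1 μM biotinylated TK substrate with 1 mM ATP in buffer containing 5 mM MgCl2, 1 mM MnCl2, 0.01% CHAPS, 1 mM DTT, 0.5% DMSO. After 1 h at room temperature, EDTA detection mix stopped the reaction. IC50 came from a four-parameter logistic fit of the 665/615 nm ratio.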
(In general: In TR-FRET formats the signal depends on donor and acceptor labels being close together.)

In assay [2] the test system is PC-9. The assay is described as follows: Cell proliferation assay, PC-9 cells (CellTiter-Glo, 72 hours). In kind it is cell-based. To be noted: PC9 cells, CellTiter-Glo, read-out: PC9 GI50. The procedure, abridged: (§2)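 Cells are exposed to graded compound concentrations after overnight plating, using 500 PC-9 or 5000 Ba/F3 per well. Baseline-subtracted viability is compared with vehicle to give percent proliferation, then GI50.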
(ATP-based viability assays read luminescence as a measure of living cells.)

Assay [3] concerns Ba/F3 cells expressing EGFR mutations. As to the kind of experiment: Cell proliferation assay, Ba/F3 cells expressing EGFR mutations (CellTiter-Glo, 72 hours). As to conditions: CellTiter-Glo. The assay is classed as cell-based. The procedure, abridged: as §2
Assay [4] has as its target T2, EGFR (d746-750 C797S) (Homo sapiens, UniProt P00533, C797S/DEL746-750).
T2 construct: purchased signalchem
The assay is described as follows: Inhibition of EGFR (d746-750 C797S) biochemical enzymatic activity (HTRF). As to conditions: EGFR Del19-C797S, 1 mM ATP, 1 h, room temperature, read-out: IC50 (nM) @Del19-C797S. The procedure, abridged: as §1

The target of assay [5] is T3, EGFR Exon19Del/T790M (Homo sapiens, UniProt P00533, DEL746-750/T790M).
T3 construct: purchased Carna Bio
T3 sequence (P00533 with tags, fused parts or gaps DEL746-750/T790M limits assumed): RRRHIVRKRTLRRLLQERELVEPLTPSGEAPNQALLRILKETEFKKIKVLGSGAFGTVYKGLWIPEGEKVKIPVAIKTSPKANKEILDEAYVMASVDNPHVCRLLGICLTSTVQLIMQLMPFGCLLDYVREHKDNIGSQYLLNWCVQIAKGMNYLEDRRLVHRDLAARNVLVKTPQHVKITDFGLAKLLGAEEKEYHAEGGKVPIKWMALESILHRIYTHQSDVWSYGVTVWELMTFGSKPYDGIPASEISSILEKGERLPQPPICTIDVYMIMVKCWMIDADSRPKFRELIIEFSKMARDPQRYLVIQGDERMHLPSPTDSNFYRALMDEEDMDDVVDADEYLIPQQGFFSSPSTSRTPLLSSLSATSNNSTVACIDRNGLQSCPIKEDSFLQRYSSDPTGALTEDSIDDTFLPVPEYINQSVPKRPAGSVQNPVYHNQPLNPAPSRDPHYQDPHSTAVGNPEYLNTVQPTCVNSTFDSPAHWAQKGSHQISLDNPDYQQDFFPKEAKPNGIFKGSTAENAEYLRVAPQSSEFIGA
The assay is described as follows: Inhibition of EGFR Exon19Del/T790M biochemical enzymatic activity (HTRF). To be noted: EGFR Del19-T790M, 1 mM ATP, 1 h, room temperature, read-out: IC50 (nM) @Del19-T790M. The procedure, abridged:
as §1

Assay [6] deals with T4, EGFR Exon19Del (Homo sapiens, UniProt P00533, DEL746-750).
T4 construct: purchased Carna Bio
As to the kind of experiment: Inhibition of EGFR Exon19Del biochemical enzymatic activity (HTRF). To be noted: EGFR Del19, 1 mM ATP, 1 h, room temperature, read-out: IC50 @Del19. The procedure, abridged: as §1

In assay [7] the target is T5, EGFR L858R/T790M (Homo sapiens, UniProt P00533, L858R/T790M).
T5 construct: purchased Carna Bio
T5 sequence (P00533 25-1210 T790M/L858R): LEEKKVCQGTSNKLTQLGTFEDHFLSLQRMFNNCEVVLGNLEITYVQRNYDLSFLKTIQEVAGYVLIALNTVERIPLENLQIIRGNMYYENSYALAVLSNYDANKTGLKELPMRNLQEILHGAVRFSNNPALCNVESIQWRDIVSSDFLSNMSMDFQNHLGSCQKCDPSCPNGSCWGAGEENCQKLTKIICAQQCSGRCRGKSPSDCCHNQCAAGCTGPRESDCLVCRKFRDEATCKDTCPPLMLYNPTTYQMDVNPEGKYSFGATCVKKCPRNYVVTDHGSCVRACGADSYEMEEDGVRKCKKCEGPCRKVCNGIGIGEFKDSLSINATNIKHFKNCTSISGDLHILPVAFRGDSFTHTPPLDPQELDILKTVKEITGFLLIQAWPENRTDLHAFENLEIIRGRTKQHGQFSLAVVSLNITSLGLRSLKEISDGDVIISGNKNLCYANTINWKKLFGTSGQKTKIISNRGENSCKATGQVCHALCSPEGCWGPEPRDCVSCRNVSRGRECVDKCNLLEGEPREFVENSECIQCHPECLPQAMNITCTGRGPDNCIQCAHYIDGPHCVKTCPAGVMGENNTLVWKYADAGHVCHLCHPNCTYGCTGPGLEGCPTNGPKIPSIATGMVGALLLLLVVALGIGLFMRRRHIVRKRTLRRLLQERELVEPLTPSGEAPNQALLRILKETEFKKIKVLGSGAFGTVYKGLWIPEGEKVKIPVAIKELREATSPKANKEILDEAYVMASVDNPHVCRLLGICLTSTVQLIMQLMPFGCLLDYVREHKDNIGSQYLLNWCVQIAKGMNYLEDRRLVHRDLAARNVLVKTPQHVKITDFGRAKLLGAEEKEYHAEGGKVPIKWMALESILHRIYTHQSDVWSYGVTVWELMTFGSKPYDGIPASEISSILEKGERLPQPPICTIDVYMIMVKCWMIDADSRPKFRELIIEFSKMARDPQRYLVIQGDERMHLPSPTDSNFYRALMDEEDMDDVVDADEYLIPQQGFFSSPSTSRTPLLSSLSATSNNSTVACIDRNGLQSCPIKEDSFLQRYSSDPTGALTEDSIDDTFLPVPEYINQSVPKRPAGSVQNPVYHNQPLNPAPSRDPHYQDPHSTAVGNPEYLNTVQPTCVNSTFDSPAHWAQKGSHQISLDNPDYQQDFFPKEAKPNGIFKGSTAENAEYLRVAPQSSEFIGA
As to the kind of experiment: Inhibition of EGFR L858R/T790M biochemical enzymatic activity (HTRF). As to conditions: EGFR L858R-T790M, 1 mM ATP, 1 h, room temperature, read-out: IC50 (nM) @L858R-T790M. The procedure, abridged: as §1

In assay [8] the target is T6, EGFR[T790M/C797S/L858R] (Homo sapiens, UniProt P00533, C797S/L858R/T790M).
T6 construct: purchased Carna Bio
T6 sequence (P00533 25-1210 T790M/C797S/L858R): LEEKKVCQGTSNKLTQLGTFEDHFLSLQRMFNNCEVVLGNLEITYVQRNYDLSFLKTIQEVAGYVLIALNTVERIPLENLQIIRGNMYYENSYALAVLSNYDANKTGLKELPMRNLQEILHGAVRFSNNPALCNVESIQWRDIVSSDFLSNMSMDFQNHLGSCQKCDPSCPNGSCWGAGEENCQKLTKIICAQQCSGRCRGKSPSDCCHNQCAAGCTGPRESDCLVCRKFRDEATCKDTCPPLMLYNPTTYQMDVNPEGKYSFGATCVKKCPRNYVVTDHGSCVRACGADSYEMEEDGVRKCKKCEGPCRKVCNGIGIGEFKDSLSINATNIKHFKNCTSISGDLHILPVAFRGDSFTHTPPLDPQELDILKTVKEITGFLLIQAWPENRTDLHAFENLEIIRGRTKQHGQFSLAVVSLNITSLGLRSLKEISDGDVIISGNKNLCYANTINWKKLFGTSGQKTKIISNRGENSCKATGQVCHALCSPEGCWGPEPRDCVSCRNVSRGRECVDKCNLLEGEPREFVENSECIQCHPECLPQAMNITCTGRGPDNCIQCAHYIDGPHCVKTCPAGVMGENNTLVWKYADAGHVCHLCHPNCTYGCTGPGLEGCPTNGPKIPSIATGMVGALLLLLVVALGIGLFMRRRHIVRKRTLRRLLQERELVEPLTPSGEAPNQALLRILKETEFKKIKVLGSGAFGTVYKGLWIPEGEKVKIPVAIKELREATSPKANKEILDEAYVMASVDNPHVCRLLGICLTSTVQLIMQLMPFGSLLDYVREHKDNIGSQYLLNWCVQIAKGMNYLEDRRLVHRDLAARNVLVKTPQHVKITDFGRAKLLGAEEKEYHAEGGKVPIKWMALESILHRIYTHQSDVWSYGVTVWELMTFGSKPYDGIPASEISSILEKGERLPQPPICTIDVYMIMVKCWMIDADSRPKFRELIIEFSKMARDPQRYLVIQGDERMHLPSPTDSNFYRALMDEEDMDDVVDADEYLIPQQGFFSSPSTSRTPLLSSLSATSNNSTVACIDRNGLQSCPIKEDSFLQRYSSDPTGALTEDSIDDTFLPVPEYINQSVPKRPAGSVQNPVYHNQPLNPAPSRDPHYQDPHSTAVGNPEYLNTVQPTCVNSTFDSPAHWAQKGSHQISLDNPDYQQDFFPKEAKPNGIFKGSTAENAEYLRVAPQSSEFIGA
As to the kind of experiment: Inhibition of EGFR[T790M/C797S/L858R] biochemical enzymatic activity (HTRF). As to conditions: EGFR T790M-C797S-L858R, 1 mM ATP, 1 h, room temperature, read-out: IC50 (nM) @T790M- C797S - L858R. The procedure, abridged:
as §1

Assay [9] has as its system A-431. As to the kind of experiment: Cell proliferation GI50, A-431 cells (Table 6). The assay is classed as cell-based.
Assay [10] concerns the target T7, EGFR[T790M/C797S/d746-750] (Homo sapiens, UniProt P00533, C797S/DEL746-750/T790M).
T7 construct: purchased Carna Bio
As to the kind of experiment: Inhibition of EGFR[T790M/C797S/d746-750] biochemical enzymatic activity (HTRF). To be noted: EGFR T790M-C797S-Del19, 1 mM ATP, 1 h, room temperature, read-out: IC50 (nM) @T790M - C797S - Del19. The procedure, abridged:
as §1

The target in assay [11] is T8, EGFR (C797S L858R) (Homo sapiens, UniProt P00533, C797S/L858R).
T8 construct: purchased signalchem
T8 sequence (P00533 25-1210 C797S/L858R): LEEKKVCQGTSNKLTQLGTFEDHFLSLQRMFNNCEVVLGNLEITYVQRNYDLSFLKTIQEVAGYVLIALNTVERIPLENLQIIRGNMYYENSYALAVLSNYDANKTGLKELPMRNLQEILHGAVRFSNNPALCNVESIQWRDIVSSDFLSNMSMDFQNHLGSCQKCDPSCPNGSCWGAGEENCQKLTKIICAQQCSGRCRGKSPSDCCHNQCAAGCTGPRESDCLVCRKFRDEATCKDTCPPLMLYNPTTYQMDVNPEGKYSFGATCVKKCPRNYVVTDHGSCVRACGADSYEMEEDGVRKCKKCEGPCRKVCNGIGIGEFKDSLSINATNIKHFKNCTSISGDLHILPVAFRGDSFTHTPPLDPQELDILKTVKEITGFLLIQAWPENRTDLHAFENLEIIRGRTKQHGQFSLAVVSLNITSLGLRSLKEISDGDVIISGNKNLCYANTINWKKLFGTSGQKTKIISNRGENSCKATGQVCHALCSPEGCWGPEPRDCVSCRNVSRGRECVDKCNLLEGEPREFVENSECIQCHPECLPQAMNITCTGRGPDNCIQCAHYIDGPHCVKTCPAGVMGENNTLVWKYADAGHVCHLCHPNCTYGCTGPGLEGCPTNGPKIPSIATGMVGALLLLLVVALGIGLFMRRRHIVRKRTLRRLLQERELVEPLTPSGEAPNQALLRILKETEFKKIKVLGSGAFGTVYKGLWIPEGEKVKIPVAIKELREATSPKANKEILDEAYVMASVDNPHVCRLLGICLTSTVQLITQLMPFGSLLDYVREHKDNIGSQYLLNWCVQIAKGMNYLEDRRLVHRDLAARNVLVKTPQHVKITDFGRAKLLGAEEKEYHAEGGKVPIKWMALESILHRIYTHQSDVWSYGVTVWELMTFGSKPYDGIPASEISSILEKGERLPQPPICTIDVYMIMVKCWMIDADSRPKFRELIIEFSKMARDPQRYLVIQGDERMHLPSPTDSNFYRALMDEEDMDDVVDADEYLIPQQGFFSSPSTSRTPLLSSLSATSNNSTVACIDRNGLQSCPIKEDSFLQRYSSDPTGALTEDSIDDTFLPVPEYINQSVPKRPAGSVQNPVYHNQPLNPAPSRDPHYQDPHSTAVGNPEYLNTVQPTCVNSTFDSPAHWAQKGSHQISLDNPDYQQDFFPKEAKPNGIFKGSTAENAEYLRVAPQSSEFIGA
As to the kind of experiment: Inhibition of EGFR (C797S L858R) biochemical enzymatic activity (HTRF). To be noted: EGFR L858-C797S, 1 mM ATP, 1 h, room temperature, read-out: IC50 (nM) @L858-C797S. The procedure, abridged:
as §1

The target of assay [12] is T9, EGFR L858R (Homo sapiens, UniProt P00533, L858R).
T9 construct: purchased Carna Bio
The assay is described as follows: Inhibition of EGFR L858R biochemical enzymatic activity (HTRF). As to conditions: 1 mM ATP, 1 h, room temperature, read-out: IC50 (nM) @L858R. The procedure, abridged: as §1

Setting [13] is: Homo sapiens, A-431, A-431 cells.
The mark [14] stands for this setting: BaF3 cells, EGFR DEL19-C797S, read-out: DEL19-C797S/BaF3 GI50.
Where [15] appears, read: BaF3 cells, EGFR DEL19-T790-C797S, read-out: DEL19-T790-C797S/BaF3 GI50.
[16] abbreviates: BaF3 cells, EGFR L858R, read-out: L858R/BaF3 GI50.
[17] abbreviates: BaF3 cells, EGFR L858R-C797S, read-out: L858R-C797S/BaF3 GI50.
Where [18] appears, read: BaF3 cells, EGFR L858R-T790-C797S, read-out: L858R-T790-C797S/BaF3 GI50.
[19] abbreviates: BaF3 cells, EGFR L858R-T790M, read-out: L858R-T790M/BaF3 GI50.
Setting [20] is: EGFR DEL19-T790M, read-out: DEL19-T790M GI50.

A word on the IC50: it is the concentration that gives 50% inhibition.

T2 sequence (P00533 with tags, fused parts or gaps DEL746-750/C797S limits assumed): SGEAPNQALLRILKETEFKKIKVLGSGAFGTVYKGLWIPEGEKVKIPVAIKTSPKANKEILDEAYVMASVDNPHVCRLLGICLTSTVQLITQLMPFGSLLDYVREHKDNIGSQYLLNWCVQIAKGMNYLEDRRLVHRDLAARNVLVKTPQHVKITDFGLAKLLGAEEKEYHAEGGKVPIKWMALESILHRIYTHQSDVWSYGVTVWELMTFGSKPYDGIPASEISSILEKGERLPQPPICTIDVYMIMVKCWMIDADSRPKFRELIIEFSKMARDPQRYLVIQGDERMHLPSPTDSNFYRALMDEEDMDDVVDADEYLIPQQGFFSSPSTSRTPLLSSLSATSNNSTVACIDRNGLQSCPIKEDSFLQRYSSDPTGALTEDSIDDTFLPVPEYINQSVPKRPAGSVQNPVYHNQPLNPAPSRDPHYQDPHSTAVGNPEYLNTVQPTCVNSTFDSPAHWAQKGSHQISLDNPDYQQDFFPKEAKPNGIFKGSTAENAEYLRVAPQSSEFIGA

For `CN1CCN(c2ccc3nc4n(c3c2)CCN(CC(F)(F)F)CCOc2c(cnn2C2CC2)-c2cc(cn(C)c2=O)C(=O)N4)CC1` [Example A2, 5-Cyclopropyl-26-methyl-16-(4-methylpiperazin-1-yl)-10-(2,2,2-trifluoroethyl)-7-oxa-4,5,10,13,20,22,26-heptaazapentacyclo[22.3.1.0^{2,6}.0^{13,21}.0^{14,19}]octacosa-1(28),2(6),3,14,16,18,20,24-octaene-23,27-dione], the IC50 in assay [1] was determined as 52 nM; in assay [4], 3.7 nM; in [5] it was 4.8 nM; in assay [6], 3.5 nM; in assay [7], 4.3 nM; in assay [8] it was 3.4 nM. For the same compound, the IC50 in assay [10] was 3.7 nM; in assay [11], 4.1 nM; in assay [12] it was 5 nM. For the same compound, the GI50 in assay [2] (Homo sapiens, PC-9, 72 h) came out at 80 nM; in assay [3] (Mus musculus, BaF3, 72 h, BaF3 cells, EGFR DEL19-C797S, read-out: DEL19-C797S/BaF3 GI50), 5.8 nM; in assay [3] (Mus musculus, BaF3, 72 h, BaF3 cells, EGFR DEL19-T790-C797S, read-out: DEL19-T790-C797S/BaF3 GI50), 30 nM; in assay [3] (Mus musculus, BaF3, 72 h, BaF3 cells, EGFR L858R, read-out: L858R/BaF3 GI50), 3.7 nM; in [3] (Mus musculus, BaF3, 72 h, BaF3 cells, EGFR L858R-C797S, read-out: L858R-C797S/BaF3 GI50), 5.2 nM; in [3] (Mus musculus, BaF3, 72 h, BaF3 cells, EGFR L858R-T790-C797S, read-out: L858R-T790-C797S/BaF3 GI50), 6.7 nM. Moreover, the GI50 amounted to 5.5 nM in assay [3] (Mus musculus, BaF3, 72 h, BaF3 cells, EGFR L858R-T790M, read-out: L858R-T790M/BaF3 GI50); 33 nM in assay [3] (Mus musculus, BaF3, 72 h, EGFR DEL19-T790M, read-out: DEL19-T790M GI50); 1010 nM in assay [9] (setting [13]).

Consider `CN(C)CCN(C)c1ccc2nc3n(c2c1)C12CCC(CN(CCOc4c(cnn4C)-c4cc(cn(C)c4=O)C(=O)N3)C1)C2` (single isomer, unassigned) [Example A85B], for which the IC50 in assay [1] was 84 nM; in assay [4], 1.6 nM; in [5], 2.2 nM; in assay [6] it was 1.2 nM; in [7], 3.1 nM; in assay [8], 3.1 nM. Further, the IC50 in assay [10] amounted to 2.2 nM; in assay [11] it was 5.5 nM; in [12] it was 11 nM. In addition, the GI50 in [2] is 12 nM; in assay [3] (setting [14]), 0.5 nM; in assay [3] (setting [15]) it was 1.1 nM; in [3] (setting [16]) it was 0.78 nM; in assay [3] (setting [17]), 1.6 nM; in [3] (setting [18]) it was 1.2 nM. Besides, the GI50 in assay [3] (setting [19]) amounted to 7.7 nM; in assay [3] (setting [20]), 1.3 nM; in [9] (setting [13]), 969 nM.

Consider `CN1CCC2(CC1)CCN(c1ccc3nc4n(c3c1)C13CCC(CN(CCOc5c(cnn5C)-c5cc(cn(C)c5=O)C(=O)N4)C1)C3)C2` (single isomer, unassigned) [Example A88B], for which the IC50 in assay [1] turned out to be 12 nM; in assay [4] it was 2.2 nM; in assay [5], 4.9 nM; in assay [6], 2.5 nM; in assay [7], 4.9 nM; in assay [8], 2.8 nM. In addition, the values for the IC50 in [10], in [11] and in assay [12] were 4.6 nM, 4.2 nM and 4.8 nM, respectively. Besides, the GI50 amounted to 21 nM in assay [2]; 0.63 nM in assay [3] (setting [14]); 1 nM in [3] (setting [15]); 0.84 nM in [3] (setting [16]); 3.4 nM in assay [3] (setting [17]); 1.7 nM in [3] (setting [18]). For the same compound, the GI50 is 8.8 nM in assay [3] (setting [19]), 1 nM in [3] (setting [20]) and 2200 nM in [9] (A-431 cells).

`CN(C)[C@@H]1CCN(c2ccc3nc4n(c3c2)C23CCC(CN(CCOc5c(cnn5C)-c5cc(cn(C)c5=O)C(=O)N4)C2)C3)C1` (single isomer, unassigned) [Example A66D]: the IC50 came to 18 nM in assay [1]; 1.1 nM in assay [4]; 2 nM in assay [5]; 2.7 nM in assay [6]; 1.7 nM in assay [7]; 2.1 nM in assay [8]. Moreover, the results for the IC50 in [10], in assay [11] and in assay [12] were 1.6 nM, 3.7 nM and 3.7 nM, respectively. Moreover, the GI50 in assay [2] was 4.2 nM; in assay [3] (setting [14]), 0.68 nM; in assay [3] (setting [15]), 1.5 nM; in [3] (setting [16]) it was 1.7 nM; in assay [3] (setting [17]), 3.2 nM; in [3] (setting [18]) it was 1.4 nM. The GI50 turned out to be 7.2 nM in assay [3] (setting [19]), 2 nM in assay [3] (setting [20]) and 473 nM in assay [9] (setting [13]).
